This note sets out measurements from US10829495B2, “Thieno-pyrimidine derivatives and uses thereof” (ZHEJIANG JIANFENG-YIEN BIOTECHNOLOGY CO., LTD., priority 2015, dated 2020).

Each structure is given as a SMILES string. Where only a bound is given, the exact number is not on record here.

Assay [1] concerns the target EGFR T790M (Homo sapiens, UniProt P00533, T790M). In words: EGFR enzyme assay. The assay is classed as biochemical. Particulars: T790M mutant. As for the experimental part: The following TABLE II lists compounds representative of the invention and their activity in EGFR assays. In these assays, the following grading was used: A: <0.1 μM; B: 0.1-10 μM.
For assay [2], the system named is NCI-H1975 cells. In words: Efficacy studies in tumor bearing mice (NCI-H1975 xenograft). The assay is classed as in vivo. The settings on record: female nu/nu mice, subcutaneous NCI-H1975 tumors, orally at 40 mg/kg daily. As for the experimental part:
2. Efficacy Studies in Tumor Bearing Mice:
Female nu/nu mice were implanted with 1×10^7 NCI-H1975 cells in 50% Matrigel subcutaneously in the flank. Tumors were pair matched with a group size of 10 mice. Test compound was administrated orally at 40 mg/kg daily.

Chain of EGFR T790M (P00533 25-1210 T790M): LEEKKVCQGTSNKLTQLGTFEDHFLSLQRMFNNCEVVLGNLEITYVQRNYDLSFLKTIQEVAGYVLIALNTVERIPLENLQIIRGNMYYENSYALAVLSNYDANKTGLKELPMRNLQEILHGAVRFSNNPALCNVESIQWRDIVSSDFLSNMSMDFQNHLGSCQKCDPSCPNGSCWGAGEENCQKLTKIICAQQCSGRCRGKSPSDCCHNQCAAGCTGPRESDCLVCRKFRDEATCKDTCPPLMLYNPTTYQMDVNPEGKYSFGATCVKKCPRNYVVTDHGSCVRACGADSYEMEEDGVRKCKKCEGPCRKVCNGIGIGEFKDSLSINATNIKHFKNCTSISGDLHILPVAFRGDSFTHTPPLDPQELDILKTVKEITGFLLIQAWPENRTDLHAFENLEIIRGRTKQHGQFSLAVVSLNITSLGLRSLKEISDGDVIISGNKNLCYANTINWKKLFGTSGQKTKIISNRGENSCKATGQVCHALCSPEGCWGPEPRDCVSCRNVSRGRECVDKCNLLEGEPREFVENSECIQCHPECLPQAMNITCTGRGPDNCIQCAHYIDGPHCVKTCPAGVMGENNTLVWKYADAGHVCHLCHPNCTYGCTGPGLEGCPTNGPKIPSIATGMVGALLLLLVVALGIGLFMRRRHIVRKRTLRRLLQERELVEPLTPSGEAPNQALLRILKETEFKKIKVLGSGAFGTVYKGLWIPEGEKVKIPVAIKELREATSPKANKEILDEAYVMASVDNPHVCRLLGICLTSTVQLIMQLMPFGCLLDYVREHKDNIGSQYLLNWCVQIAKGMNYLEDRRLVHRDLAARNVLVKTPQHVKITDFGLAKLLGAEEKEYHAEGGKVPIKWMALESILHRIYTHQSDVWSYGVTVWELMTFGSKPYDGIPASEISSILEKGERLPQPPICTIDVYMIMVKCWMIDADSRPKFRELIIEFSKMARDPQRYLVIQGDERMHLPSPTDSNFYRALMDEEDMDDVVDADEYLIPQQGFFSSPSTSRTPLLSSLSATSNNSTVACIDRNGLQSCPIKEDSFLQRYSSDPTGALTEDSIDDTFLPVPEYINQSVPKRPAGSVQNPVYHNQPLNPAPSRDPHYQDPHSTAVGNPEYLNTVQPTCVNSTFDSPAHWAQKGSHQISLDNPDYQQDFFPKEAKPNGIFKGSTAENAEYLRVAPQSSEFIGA

As for `C=CC(=O)Nc1cc(Nc2nc(-c3cn(C)c4ccccc34)c3sccc3n2)c(OC)cc1N(C)CCN(C)C` [Compound 1, N-[2-[2-(dimethylamino)ethyl-methyl-amino]-4-methoxy-5-[[4-(1-methylindol-3-yl)thieno[3,2-d]pyrimidin-2-yl]amino]phenyl]prop-2-enamide], the half-maximal inhibitory concentration (IC50) in assay [1] is less than 100 nM. Further, the “Tumor growth inhibition (%)” value in assay [2] is on record as more than 75%.

`C=CC(=O)Nc1cc(Nc2nc(-c3cn(CC)c4ccccc34)c3sccc3n2)c(OC)cc1N(C)CCN(C)C` [Compound 2, N-[2-[2-(dimethylamino)ethyl-methyl-amino]-5-[[4-(1-ethylindol-3-yl)thieno[3,2-d]pyrimidin-2-yl]amino]-4-methoxy-phenyl]prop-2-enamide]: in assay [1], the IC50 was less than 100 nM. Besides, in assay [2], the “Tumor growth inhibition (%)” value is more than 75%. In assay [1], `C=CC(=O)Nc1cc(Nc2nc(-c3cn(C(C)C)c4ccccc34)c3sccc3n2)c(OC)cc1N(C)CCN(C)C` [Compound 3, N-[2-[2-(dimethylamino)ethyl-methyl-amino]-5-[[4-(1-isopropylindol-3-yl)thieno[3,3-d]pyrimidin-2-yl]amino]-4-methoxy-phenyl]prop-2-enamide] returned an IC50 of less than 100 nM. In the case of `C=CC(=O)Nc1cc(Nc2nc(-c3cn(C(C)(C)C)c4ccccc34)c3sccc3n2)c(OC)cc1N(C)CCN(C)C` [Compound 4, N-[5-[[4-(1-tert-butylindol-3-yl)thieno[3,2-d]pyrimidin-2-yl]amino]-2-[2-(dimethylamino)ethyl-methyl-amino]-4-methoxy-phenyl]prop-2-enamide], the IC50 in assay [1] is 100 to 10000 nM.

Take `C=CC(=O)Nc1cc(Nc2nc(-c3cn(C)c4ccc(C)cc34)c3sccc3n2)c(OC)cc1N(C)CCN(C)C` [Compound 5, N-[2-[2-(dimethylamino)ethyl-methyl-amino]-5-[[4-(1,5-dimethylindol-3-yl)thienol[3,2-d]pyrimidin-2-yl]amino]-4-methoxy-phenyl]prop-2-enamide]: in assay [1], the IC50 is less than 100 nM. The same measure, in the same setting: the figure for `C=CC(=O)Nc1cc(Nc2nc(-c3cn(C)c4ccc(OC)cc34)c3sccc3n2)c(OC)cc1N(C)CCN(C)C` [Compound 6, N-[2-[2-(dimethylamino)ethyl-methyl-amino]-4-methoxy-5-[[4-(5-methoxy-1-methyl-indol-3-yl)thieno[3,2-d]pyrimidin-2-yl]amino]phenyl]prop-2-enamide] is less than 100 nM. Still for that read-out and setting: next, `C=CC(=O)Nc1cc(Nc2nc(-c3cn(C)c4cc(OC)ccc34)c3sccc3n2)c(OC)cc1N(C)CCN(C)C` [Compound 7, N-[2-[2-(dimethylamino)ethyl-methyl-amino]-4-methoxy-5-[[4-(6-methoxy-1-methyl-indol-3-yl)thieno[3,2-d]pyrimidin-2-yl]amino]phenyl]prop-2-enamide]: 100 to 10000 nM. Same read-out and setting: next, `C=CC(=O)Nc1cc(Nc2nc(-c3cn(C)c4cc(C)ccc34)c3sccc3n2)c(OC)cc1N(C)CCN(C)C` [Compound 8, N-[2-[2-(dimethylamino)ethyl-methyl-amino]-5-[[4-(1,6-dimethylindol-3-yl)thieno[3,2-d]pyrimidin-2-yl]amino]-4-methoxy-phenyl]prop-2-enamide]: less than 100 nM.
